Numbers after ± are expanded uncertainties.
Columns and labels:
[1] = 298.15 K, 101.33 kPa, Liquid; for viscosity: Capillary tube (Ostwald / Ubbelohde) method; for speed of sound: Quartz crystal interferometer (Mittal Enterprises, India); for mass density: Vibrating tube method
[2] = xn = mol fraction of the nth substance listed; conditions: 298.15 K, 101 kPa, Liquid; for speed of sound: Quartz crystal interferometer (Mittal Enterprises, India)

## CCC(C)O (stereo not drawn) [butan-2-ol]
[1]
  viscosity: 2.907 ± 0.022 mPa·s
  speed of sound: 1213 ± 2 m/s
  mass density: 802.54 ± 0.42 kg/m3

## CCCCCCC(C)O (stereo not drawn) [2-octanol]
[1]
  viscosity: 6.568 ± 0.1 mPa·s
  mass density: 816.13 ± 1.3 kg/m3

## CCCCCC(C)O (stereo not drawn) [2-heptanol]
[1]
  viscosity: 5.346 ± 0.039 mPa·s
  mass density: 813.33 ± 0.42 kg/m3

## CCO [ethanol]
[1]
  viscosity: 1.093 ± 0.009 mPa·s
  speed of sound: 1145 ± 2 m/s
  mass density: 785.32 ± 0.41 kg/m3

## CC1CCCCC1 [methylcyclohexane]
[1]
  viscosity: 0.683 ± 0.007 mPa·s
  speed of sound: 1209 ± 2 m/s
  mass density: 764.99 ± 0.41 kg/m3

## CC1CCCCC1 [methylcyclohexane] + CCC(C)O
[2]; x1 = 0.0988
  speed of sound: 1207 ± 4 m/s
[2]; x1 = 0.2015
  speed of sound: 1199 ± 4 m/s
  mass density: 791.01 ± 0.46 kg/m3
  viscosity: 1.72 ± 0.022 mPa·s
[2]; x1 = 0.3058
  speed of sound: 1193 ± 4 m/s
[2]; x1 = 0.3993
  speed of sound: 1190 ± 4 m/s
[2]; x1 = 0.5007
  speed of sound: 1189 ± 4 m/s
[2]; x1 = 0.6001
  speed of sound: 1189 ± 4 m/s
[2]; x1 = 0.7
  speed of sound: 1192 ± 4 m/s
[2]; x1 = 0.7737
  speed of sound: 1196 ± 4 m/s
[2]; x1 = 0.8996
  speed of sound: 1203 ± 4 m/s
[2]; x1 = 0.9489
  speed of sound: 1206 ± 4 m/s
[2]; x1 = 0.1026
  mass density: 796.47 ± 0.46 kg/m3
  viscosity: 2.207 ± 0.028 mPa·s
[2]; x1 = 0.1536
  mass density: 793.6 ± 0.46 kg/m3
  viscosity: 1.933 ± 0.024 mPa·s
[2]; x1 = 0.2544
  mass density: 788.28 ± 0.46 kg/m3
  viscosity: 1.509 ± 0.019 mPa·s
[2]; x1 = 0.3307
  mass density: 784.56 ± 0.46 kg/m3
  viscosity: 1.281 ± 0.017 mPa·s
[2]; x1 = 0.3604
  mass density: 783.2 ± 0.46 kg/m3
  viscosity: 1.216 ± 0.016 mPa·s
[2]; x1 = 0.4086
  mass density: 781.07 ± 0.46 kg/m3
  viscosity: 1.107 ± 0.015 mPa·s
[2]; x1 = 0.4679
  mass density: 778.61 ± 0.46 kg/m3
  viscosity: 1.002 ± 0.013 mPa·s
[2]; x1 = 0.5012
  mass density: 777.3 ± 0.46 kg/m3
  viscosity: 0.953 ± 0.013 mPa·s
[2]; x1 = 0.5872
  mass density: 774.19 ± 0.46 kg/m3
  viscosity: 0.856 ± 0.012 mPa·s
[2]; x1 = 0.6926
  mass density: 770.91 ± 0.46 kg/m3
  viscosity: 0.77 ± 0.011 mPa·s
[2]; x1 = 0.7844
  mass density: 768.54 ± 0.46 kg/m3
  viscosity: 0.729 ± 0.01 mPa·s
[2]; x1 = 0.8916
  mass density: 766.35 ± 0.46 kg/m3
  viscosity: 0.696 ± 0.01 mPa·s

## CCCCCCC(C)O (stereo not drawn) [2-octanol] + CC1CCCCC1
[2]; x2 = 0.1001
  speed of sound: 1292 ± 4 m/s
[2]; x2 = 0.2032
  speed of sound: 1282 ± 4 m/s
[2]; x2 = 0.3003
  speed of sound: 1269 ± 4 m/s
[2]; x2 = 0.4001
  speed of sound: 1258 ± 4 m/s
[2]; x2 = 0.5043
  speed of sound: 1247 ± 4 m/s
[2]; x2 = 0.5973
  speed of sound: 1239 ± 4 m/s
[2]; x2 = 0.6889
  speed of sound: 1231 ± 4 m/s
[2]; x2 = 0.8109
  speed of sound: 1222 ± 4 m/s
[2]; x2 = 0.9008
  speed of sound: 1219 ± 4 m/s
[2]; x2 = 0.9466
  speed of sound: 1216 ± 4 m/s
[2]; x2 = 0.1006
  mass density: 811.52 ± 1.2 kg/m3
  viscosity: 4.941 ± 0.088 mPa·s
[2]; x2 = 0.1185
  mass density: 810.68 ± 1.2 kg/m3
  viscosity: 4.692 ± 0.083 mPa·s
[2]; x2 = 0.1672
  mass density: 808.39 ± 1.1 kg/m3
  viscosity: 4.097 ± 0.071 mPa·s
[2]; x2 = 0.2104
  mass density: 806.32 ± 1.1 kg/m3
  viscosity: 3.651 ± 0.062 mPa·s
[2]; x2 = 0.2489
  mass density: 804.45 ± 1.1 kg/m3
  viscosity: 3.308 ± 0.055 mPa·s
[2]; x2 = 0.2536
  mass density: 804.22 ± 1.1 kg/m3
  viscosity: 3.263 ± 0.055 mPa·s
[2]; x2 = 0.3171
  mass density: 801.09 ± 0.99 kg/m3
  viscosity: 2.769 ± 0.045 mPa·s
[2]; x2 = 0.347
  mass density: 799.59 ± 0.97 kg/m3
  viscosity: 2.58 ± 0.042 mPa·s
[2]; x2 = 0.3979
  mass density: 797.02 ± 0.93 kg/m3
  viscosity: 2.268 ± 0.036 mPa·s
[2]; x2 = 0.4503
  mass density: 794.35 ± 0.88 kg/m3
  viscosity: 2.022 ± 0.032 mPa·s
[2]; x2 = 0.5168
  mass density: 790.9 ± 0.83 kg/m3
  viscosity: 1.72 ± 0.026 mPa·s
[2]; x2 = 0.5766
  mass density: 787.77 ± 0.78 kg/m3
  viscosity: 1.5 ± 0.023 mPa·s
[2]; x2 = 0.5969
  mass density: 786.69 ± 0.76 kg/m3
  viscosity: 1.443 ± 0.022 mPa·s
[2]; x2 = 0.684
  mass density: 782.06 ± 0.69 kg/m3
  viscosity: 1.199 ± 0.017 mPa·s
[2]; x2 = 0.8058
  mass density: 775.5 ± 0.6 kg/m3
  viscosity: 0.943 ± 0.013 mPa·s
[2]; x2 = 0.9002
  mass density: 770.39 ± 0.53 kg/m3
  viscosity: 0.793 ± 0.011 mPa·s

## CCCCCC(C)O (stereo not drawn) [2-heptanol] + CC1CCCCC1
[2]; x2 = 0.0998
  speed of sound: 1278 ± 4 m/s
[2]; x2 = 0.1479
  speed of sound: 1272 ± 4 m/s
[2]; x2 = 0.206
  speed of sound: 1263 ± 4 m/s
[2]; x2 = 0.3053
  speed of sound: 1250 ± 4 m/s
[2]; x2 = 0.3966
  speed of sound: 1239 ± 4 m/s
[2]; x2 = 0.5005
  speed of sound: 1229 ± 4 m/s
[2]; x2 = 0.5973
  speed of sound: 1223 ± 4 m/s
[2]; x2 = 0.7017
  speed of sound: 1223 ± 4 m/s
[2]; x2 = 0.7974
  speed of sound: 1222 ± 4 m/s
[2]; x2 = 0.9017
  speed of sound: 1219 ± 4 m/s
[2]; x2 = 0.9514
  speed of sound: 1215 ± 4 m/s
[2]; x2 = 0.103
  mass density: 808.34 ± 0.46 kg/m3
  viscosity: 3.935 ± 0.048 mPa·s
[2]; x2 = 0.1524
  mass density: 805.84 ± 0.46 kg/m3
  viscosity: 3.415 ± 0.042 mPa·s
[2]; x2 = 0.2071
  mass density: 803.04 ± 0.46 kg/m3
  viscosity: 2.945 ± 0.036 mPa·s
[2]; x2 = 0.2564
  mass density: 800.53 ± 0.46 kg/m3
  viscosity: 2.587 ± 0.032 mPa·s
[2]; x2 = 0.3047
  mass density: 798.08 ± 0.46 kg/m3
  viscosity: 2.287 ± 0.029 mPa·s
[2]; x2 = 0.3558
  mass density: 795.52 ± 0.46 kg/m3
  viscosity: 2.013 ± 0.025 mPa·s
[2]; x2 = 0.4019
  mass density: 793.23 ± 0.46 kg/m3
  viscosity: 1.817 ± 0.023 mPa·s
[2]; x2 = 0.4469
  mass density: 791.02 ± 0.46 kg/m3
  viscosity: 1.649 ± 0.021 mPa·s
[2]; x2 = 0.4951
  mass density: 788.67 ± 0.46 kg/m3
  viscosity: 1.49 ± 0.019 mPa·s
[2]; x2 = 0.5969
  mass density: 783.72 ± 0.46 kg/m3
  viscosity: 1.225 ± 0.016 mPa·s
[2]; x2 = 0.703
  mass density: 778.57 ± 0.46 kg/m3
  viscosity: 1.017 ± 0.014 mPa·s
[2]; x2 = 0.7979
  mass density: 773.96 ± 0.46 kg/m3
  viscosity: 0.879 ± 0.012 mPa·s
[2]; x2 = 0.8883
  mass density: 769.71 ± 0.46 kg/m3
  viscosity: 0.773 ± 0.011 mPa·s

## CCCCC(C)O (stereo not drawn) [2-hexanol]
[1]
  viscosity: 4.204 ± 0.048 mPa·s
  mass density: 810.25 ± 0.83 kg/m3

## CCCC(C)O (stereo not drawn) [pentan-2-ol]
[1]
  viscosity: 3.421 ± 0.039 mPa·s
  speed of sound: 1235 ± 3 m/s
  mass density: 805.4 ± 0.83 kg/m3

From the NIST ThermoML archive (doi:10.1016/j.jct.2005.04.019)
